Data reported in ChEMBL document CHEMBL4420076, “Amylin and calcitonin receptor agonist” (2017).
Numbered stars: 1 amine (or outer) side, 2 acyl side, 3 side chain; on linkers, the order of the positions; unused ones are H or OH. Peptide text beside a SMILES is read from it. * marks the point of attachment. C20 diacid = O=C(O)CCCCCCCCCCCCCCCCCCC(=O)*; γGlu = O=C(O)[C@H](CCC(=O)[*:2])N[*:1]; C14 diacid = O=C(O)CCCCCCCCCCCCC(=O)*

Columns and labels:
Calcitonin receptor [1] = molecular target: T1, Calcitonin receptor (Homo sapiens, UniProt P30988); assay: Agonist activity at human calcitonin receptor expressed in BHK570 cells assessed as increase in intracellular cAMP concentration incubated for 3 hrs in absence of albumin by CRE luciferase reporter gene assay; assay type: functional, cell-based
T1 sequence (P30988 whole entry): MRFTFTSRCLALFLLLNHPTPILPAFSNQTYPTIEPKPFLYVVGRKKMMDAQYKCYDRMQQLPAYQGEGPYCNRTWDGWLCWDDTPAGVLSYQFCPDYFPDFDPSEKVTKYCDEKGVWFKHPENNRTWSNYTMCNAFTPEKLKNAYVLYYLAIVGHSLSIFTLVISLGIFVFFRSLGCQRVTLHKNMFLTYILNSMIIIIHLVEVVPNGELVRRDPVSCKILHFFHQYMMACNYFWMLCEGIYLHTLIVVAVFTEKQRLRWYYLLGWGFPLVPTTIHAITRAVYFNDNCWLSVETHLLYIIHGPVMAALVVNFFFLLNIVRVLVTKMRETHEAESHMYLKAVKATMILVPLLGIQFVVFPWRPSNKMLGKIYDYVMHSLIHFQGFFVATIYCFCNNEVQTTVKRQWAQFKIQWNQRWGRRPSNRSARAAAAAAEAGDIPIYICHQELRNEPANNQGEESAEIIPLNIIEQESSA

Calcitonin receptor [2] = molecular target: T1, Calcitonin receptor; assay: Agonist activity at human calcitonin receptor expressed in BHK570 cells assessed as increase in intracellular cAMP concentration incubated for 3 hrs in presence of 10% FBS by CRE luciferase reporter gene assay; assay type: functional, cell-based
[3] = Solubility in 100 mM bistrispropane buffer at pH 6.0 incubated for 18 hrs by UPLC analysis; assay type: physicochemical
Calcitonin receptor [4] = molecular target: T1, Calcitonin receptor; assay: Displacement of [125I]-labeled human calcitonin from human calcitonin receptor expressed in BHK tkts13 cell membranes incubated for 1 hr by scintillation proximity assay
[5] = molecular target: T2, Amylin receptor AMY3; CALCR/RAMP3 (Homo sapiens, UniProt O60896+P30988); assay: Agonist activity at human amylin receptor expressed in BHK570 cells co-expressing RAMP3 assessed as increase in intracellular cAMP concentration incubated for 3 hrs in presence of 10% FBS by CRE luciferase reporter gene assay; assay type: functional, cell-based
T2 sequence (P30988 whole entry): T1 sequence (P30988 whole entry)
T2 sequence (O60896 whole entry): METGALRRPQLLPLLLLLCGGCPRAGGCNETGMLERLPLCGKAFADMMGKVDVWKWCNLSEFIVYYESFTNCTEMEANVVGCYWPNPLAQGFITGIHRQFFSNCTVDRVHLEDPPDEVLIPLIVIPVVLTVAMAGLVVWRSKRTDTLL

[6] = Solubility in 100 mM bistrispropane buffer at pH 7.5 incubated for 18 hrs by UPLC analysis; assay type: physicochemical
[7] = Solubility in 100 mM glycylglycine buffer at pH 4.0 incubated for 18 hrs by UPLC analysis; assay type: physicochemical
[8] = Solubility in 100 mM bistrispropane buffer at pH 7.0 incubated for 18 hrs by UPLC analysis; assay type: physicochemical
[9] = Solubility in 100 mM glycylglycine buffer at pH 5.0 incubated for 18 hrs by UPLC analysis; assay type: physicochemical
[10] = Solubility in 100 mM glycylglycine buffer at pH 3.0 incubated for 18 hrs by UPLC analysis; assay type: physicochemical
[11] = Solubility in 100 mM bistrispropane buffer at pH 8.0 incubated for 18 hrs by UPLC analysis; assay type: physicochemical
[12] = Solubility in 100 mM bistrispropane buffer at pH 6.5 incubated for 18 hrs by UPLC analysis; assay type: physicochemical
[13] = molecular target: T2, Amylin receptor AMY3; CALCR/RAMP3; assay: Agonist activity at human amylin receptor expressed in BHK570 cells co-expressing RAMP3 assessed as increase in intracellular cAMP concentration incubated for 3 hrs in absence of albumin by CRE luciferase reporter gene assay; assay type: functional, cell-based
[14] = molecular target: T2, Amylin receptor AMY3; CALCR/RAMP3; assay: Displacement of [125I]-labeled rat amylin from human amylin receptor expressed in BHK tkts13 whole cells co-expressing RAMP3 incubated for 60 mins by scintillation proximity assay; assay type: cell-based
[15] = molecular target: T3, Amylin receptor AMY3; CALCR/RAMP3 (Rattus norvegicus, UniProt P32214+Q9JJ73); assay: Displacement of [125I]-labeled rat amylin from rat amylin receptor expressed in BHK tkts13 cell membranes co-expressing RAMP3 incubated for 120 mins by scintillation proximity assay
T3 sequence (P32214 whole entry): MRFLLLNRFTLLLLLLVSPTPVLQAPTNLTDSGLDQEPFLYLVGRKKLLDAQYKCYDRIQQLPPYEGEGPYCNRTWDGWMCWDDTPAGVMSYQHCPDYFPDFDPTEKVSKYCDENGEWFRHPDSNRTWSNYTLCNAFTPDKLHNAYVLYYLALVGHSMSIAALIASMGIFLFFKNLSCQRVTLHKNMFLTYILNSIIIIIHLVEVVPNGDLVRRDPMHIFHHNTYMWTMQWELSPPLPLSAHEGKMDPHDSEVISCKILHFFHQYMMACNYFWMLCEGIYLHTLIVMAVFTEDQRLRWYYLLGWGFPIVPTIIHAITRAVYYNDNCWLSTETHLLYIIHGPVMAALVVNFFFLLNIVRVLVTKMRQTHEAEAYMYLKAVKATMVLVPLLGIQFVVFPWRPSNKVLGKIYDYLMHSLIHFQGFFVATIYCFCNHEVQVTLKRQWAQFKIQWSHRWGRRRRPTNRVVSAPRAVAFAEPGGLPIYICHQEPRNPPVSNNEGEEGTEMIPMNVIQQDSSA
T3 sequence (Q9JJ73 whole entry): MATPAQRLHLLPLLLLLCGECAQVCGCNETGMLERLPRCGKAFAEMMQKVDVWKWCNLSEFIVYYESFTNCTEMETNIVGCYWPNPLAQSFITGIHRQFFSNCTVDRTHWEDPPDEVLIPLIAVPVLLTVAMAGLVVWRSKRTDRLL

Row | Compound | EC50 (Calcitonin receptor [1]) [nM] | EC50 (Calcitonin receptor [2]) [nM] | solubility at 18 h [3] [µM] | IC50 (Calcitonin receptor [4]) [nM] | EC50 [5] [nM] | solubility at 18 h [6] [µM] | solubility at 18 h [7] [µM] | solubility at 18 h [8] [µM] | solubility at 18 h [9] [µM] | solubility at 18 h [10] [µM] | solubility at 18 h [11] [µM] | solubility at 18 h [12] [µM] | EC50 [13] [nM] | IC50 [14] [nM] | IC50 [15] [nM]
1 | CC(C)C[C@H](NC(=O)[C@H](C)NC(=O)[C@H](C)NC(=O)[C@@H](NC(=O)[C@H](CO)NC(=O)[C@H](CC(C)C)NC(=O)[C@H](CCC(=O)O)NC(=O)[C@H](CO)NC(=O)[C@H](C)NC(=O)CCCCCCCCCCCCC(=O)O)[C@@H](C)O)C(=O)NCC(=O)N[C@@H](CCCNC(=N)N)C(=O)N[C@@H](CC(C)C)C(=O)N[C@@H](CO)C(=O)N[C@@H](C)C(=O)N[C@@H](CCC(=O)O)C(=O)N[C@@H](CC(C)C)C(=O)N[C@@H](Cc1cnc[nH]1)C(=O)N[C@@H](CCC(=O)O)C(=O)N[C@@H](CC(C)C)C(=O)N[C@@H](C)C(=O)N[C@H](C(=O)N[C@@H](CC(C)C)C(=O)N1CCC[C@H]1C(=O)N[C@@H](CCCNC(=N)N)C(=O)N[C@H](C(=O)N[C@@H](CCC(=O)O)C(=O)N[C@H](C(=O)NCC(=O)N[C@@H](CO)C(=O)NCC(=O)N[C@@H](CO)C(=O)N1CCC[C@H]1C(N)=O)[C@@H](C)O)[C@@H](C)O)[C@@H](C)O ({C14 diacid}-ASELSTAALGRLSAELHELATLPRTETGSGSP-NH2) | 0.005 | 0.004 | ≥ 200 | 0.14 | 0.006 | ≥ 200 | ≥ 200 | ≥ 200 | ≥ 200 | ≥ 200 | ≥ 200 | ≥ 200 | 0.007 | – | –
2 | CC(C)C[C@H](NC(=O)[C@H](CCCNC(=N)N)NC(=O)CNC(=O)[C@H](CC(C)C)NC(=O)[C@@H](NC(=O)[C@H](C)NC(=O)[C@@H](NC(=O)[C@H](CO)NC(=O)[C@H](CC(C)C)NC(=O)[C@H](CCC(N)=O)NC(=O)[C@H](CO)NC(=O)[C@H](C)NC(=O)CC[C@H](NC(=O)CCCCCCCCCCCCCCCCCCC(=O)O)C(=O)O)[C@@H](C)O)C(C)C)C(=O)N[C@@H](CO)C(=O)N[C@@H](CCC(N)=O)C(=O)N[C@@H](CCCNC(=N)N)C(=O)N[C@@H](CC(C)C)C(=O)N[C@@H](Cc1cnc[nH]1)C(=O)N[C@@H](CCCNC(=N)N)C(=O)N[C@@H](CC(C)C)C(=O)N[C@@H](CCC(N)=O)C(=O)N[C@H](C(=O)N[C@@H](Cc1ccc(O)cc1)C(=O)N1CCC[C@H]1C(=O)N[C@@H](CCCNC(=N)N)C(=O)N[C@H](C(=O)N[C@@H](CCC(N)=O)C(=O)N[C@H](C(=O)NCC(=O)N[C@@H](CO)C(=O)N[C@@H](CCC(N)=O)C(=O)N[C@H](C(=O)N[C@@H](Cc1ccc(O)cc1)C(N)=O)[C@@H](C)O)[C@@H](C)O)[C@@H](C)O)[C@@H](C)O ({C20 diacid-γGlu}-ASQLSTAVLGRLSQRLHRLQTYPRTQTGSQTY-NH2) | 0.015 | 0.05 | – | 0.131 | 0.037 | – | – | – | – | – | – | – | 0.016 | 3.7 | 1.16
3 | CC(C)C[C@H](NC(=O)[C@H](CO)NC(=O)[C@H](C)NC(=O)[C@@H](NC(=O)[C@H](CO)NC(=O)[C@H](CC(C)C)NC(=O)[C@H](CCC(=O)O)NC(=O)[C@H](CO)NC(=O)[C@H](C)NC(=O)CC[C@H](NC(=O)CCCCCCCCCCCCCCCCCCC(=O)O)C(=O)O)[C@@H](C)O)C(=O)NCC(=O)N[C@@H](CCCNC(=N)N)C(=O)N[C@@H](CC(C)C)C(=O)N[C@@H](CO)C(=O)N[C@@H](C)C(=O)N[C@@H](CCC(=O)O)C(=O)N[C@@H](CC(C)C)C(=O)N[C@@H](Cc1cnc[nH]1)C(=O)N[C@@H](CCC(=O)O)C(=O)N[C@@H](CC(C)C)C(=O)N[C@@H](CO)C(=O)N[C@H](C(=O)N[C@@H](Cc1ccc(O)cc1)C(=O)N1CCC[C@H]1C(=O)N[C@@H](CCCNC(=N)N)C(=O)N[C@H](C(=O)N[C@@H](CCC(=O)O)C(=O)N[C@H](C(=O)NCC(=O)N[C@@H](CO)C(=O)NCC(=O)N[C@@H](CO)C(=O)N[C@@H](Cc1ccc(O)cc1)C(N)=O)[C@@H](C)O)[C@@H](C)O)[C@@H](C)O ({C20 diacid-γGlu}-ASELSTASLGRLSAELHELSTYPRTETGSGSY-NH2) | 0.016 | 0.108 | – | 0.1 | 0.143 | ≥ 200 | – | ≥ 200 | – | ≥ 200 | ≥ 200 | – | 0.017 | 3.17 | 0.046
